Experimental data from US10059698B2, “Hesperetin aza-cinnamic acid derivatives with anti-tumor activities and a method of preparing the same” (Shaanxi University of Science and Technology, priority 2016, dated 2018).

Columns and labels:
[1] = system: human hepatocellular carcinoma cells (SMMC-7721); assay: tumor cell proliferation inhibition test (MTT), SMMC-7721; assay type: cell-based; settings: SMMC-7721 cells, 48 hours
Text: (§1) The compounds of the present invention were subjected to tumor cell proliferation inhibition test, and the conventional MTT method was used as the test method.
(§2) Cell lines selected are nonismall cell lung cancer cells (A549), human hepatocellular carcinoma cells (SMMC-7721), human glioma cells (U251), human gastric adenocarcinoma cells (SGC-7901), and human breast cancer cells (MCF-7). The culture medium was DMEM+15% NBS+double antibody.
(§3) Preparation of the sample solutions: compounds were dissolved in DMSO (Merck), and PBS (−) was add to 100 μL of the solution or homogeneous suspension. The solution or suspension was diluted with DMSO and PBS(−) to final concentrations of 0.1, 1, 10, 20, 40, 60, 80, 100 μmol/L.
(§4) Anti-tumor agent cytarabine (Ara-C) was used as control and was prepared in the same way as the compounds.
(§5) Cell culture: adherent growth Tumor cells were cultured in 1640 medium containing 10% inactivated neonatal bovine serum and penicillin, streptomycin (1 million U/L), placed in carbon dioxide incubator at 37° C., 5% CO2, and saturated humidity. Cells were treated serially passaged 2-3 times. The first culture was washed with PBS 2 times, and digested with trypsin. Fresh culture medium was added evenly, cells were adjusted to a appropriate concentration and transferred into a new culture flask. Cell in an exponential phase were chosen for the tests.
(§6) Experimental Principle: Living cells mitochondria in the dehydrogenase can reduce yellow MTT to water-insoluble blue-violet product MT (MTT formazan), deposited in the cells. The amount of production is proportional to the number of living cells. […] DMSO can dissolve blue violet crystals, and the color depth is proportional to the amount contained, so the absorbance measured by the microplate reader can reflect the cell viability.
(§7) Methods: The exponential phase cells were digested and counted and seeded in 96-well plates at a density of 2×10^4/mL at 100 μl per well. After 24 hours of incubation, the cells to be tested were treated with 0.1, 1, 10, 20, 40, 60, 80, 100 μmol/L of the compounds. Each experimental group had 5 wells in each concentration, and the culture medium containing 0.4% DMSO was used as control. After 48 hours, the supernatant was discarded, and 100 μl of MTT ((2-(4,5-dimethyl-2-thiazolyl)-3,5-diphenyl-2H-[…]) (1 mg/mL) was added to each well. After another 4 hours, the supernatant was discarded, and 100 μL of DMSO was added to each well. After mixing, the absorbance was measured at 570 nm using a microplate reader. An IC50 calculation software was used to determine the half inhibitory concentration (IC50).

[2] = system: nonismall cell lung cancer cells (A549); assay: tumor cell proliferation inhibition test (MTT), A549; assay type: cell-based; settings: Homo sapiens, 48 hours
Text: as §1, §2, §3, §4, §5, §6, §7

[3] = system: tumor cells (A549, SMMC-7721, U251, SGC-7901, MCF-7); assay: tumor cell proliferation inhibition test (MTT), all cell lines tested; assay type: cell-based, human; settings: in some cell lines tested
Text: as §1, §2, §3, §4, §5, §6, §7

[4] = system: human glioma cells (U251); assay: tumor cell proliferation inhibition test (MTT), U251; assay type: cell-based; settings: U-251, 48 hours
Text: as §1, §2, §3, §4, §5, §6, §7

[5] = system: human breast cancer cells (MCF-7); assay: tumor cell proliferation inhibition test (MTT), MCF-7; assay type: cell-based; settings: MCF7, MCF-7 cells, 48 hours
Text: as §1, §2, §3, §4, §5, §6, §7

[6] = system: human gastric adenocarcinoma cells (SGC-7901); assay: tumor cell proliferation inhibition test (MTT), SGC-7901; assay type: cell-based; settings: SGC-7901 cells, 48 hours
Text: as §1, §2, §3, §4, §5, §6, §7

[7] = rats; cited from earlier work
HepG2 cells = settings: in vitro; time-dependent and dose-effect relationship; cited from earlier work

Row | Compound | IC50 [1] | IC50 [2] | activities compared with Ara-C [3] | IC50 [4] | IC50 [5] | IC50 [6] | toxicity of doxorubicin [7] | inhibition of proliferation of HepG2 cells (HepG2 cells)
1 | COc1ccc([C@@H]2CC(=O)c3c(O)cc(OC(=O)/C=C/c4ccc(O)c(OC)n4)cc3O2)cc1O [Compound F, (S,E) 5-hydroxy-2-(3-hydroxy-4-methoxyphenyl)-4-oxochroman-7-yl 3-(5-hydroxy-6-methoxypyridin-2-yl) acrylate acid ester] | 23.7 ± 1.5 µM | > 100 µM | equal or better activities than Ara-C | > 100 µM | 92.1 ± 2.73 µM | > 100 µM |  | 
2 | COc1ccc([C@@H]2CC(=O)c3c(O)cc(OC(=O)/C=C/c4ccc(Cl)cn4)cc3O2)cc1OC [Compound I, (S,E) 2-(3,4-dimethoxyphenyl)-5-hydroxy-4-oxochroman-7-yl 3-(5-chloropyridin-2-yl) acrylate acid ester] | 63.9 ± 2.28 µM | > 100 µM | equal or better activities than Ara-C | 63.9 ± 2.28 µM | > 100 µM | 16.1 ± 0.47 µM |  | 
3 | COc1ccc([C@@H]2CC(=O)c3c(O)cc(OC(=O)/C=C/c4ccc([N+](=O)[O-])cn4)cc3O2)cc1OC [Compound K, (S,E) 2-(3,4-dimethoxyphenyl)-5-hydroxy-4-oxochroman-7-yl 3-(5-nitropyridin-2-yl) acrylate acid ester] | > 100 µM | > 100 µM |  | > 100 µM | > 100 µM | > 100 µM |  | 
4 | COc1ccc([C@@H]2CC(=O)c3c(O)cc(OC(=O)/C=C/c4ccccn4)cc3O2)cc1O [Compound A, (S,E) 5-hydroxy-2-(3-hydroxy-4-methoxyphenyl)-4-oxochroman-7-yl 3-(pyridin-2-yl) acrylic acid ester] | 46.8 ± 1.56 µM | 35.1 ± 0.47 µM | equal or better activities than Ara-C | > 100 µM | 43.1 ± 1.31 µM | 89.9 ± 1.02 µM |  | 
5 | COc1ccc([C@@H]2CC(=O)c3c(O)cc(O)cc3O2)cc1O [hesperetin, Hesperetin] |  |  |  |  |  |  | could reduce the toxicity of doxorubicin in rats | can inhibit the proliferation of HepG2 cells in vitro
6 | COc1ccc([C@@H]2CC(=O)c3c(O)cc(OC(=O)/C=C/c4ccc([N+](=O)[O-])cn4)cc3O2)cc1O [Compound E, (S,E) 5-hydroxy-2-(3-hydroxy-4-methoxyphenyl)-4-oxochroman-7-yl 3-(5-nitropyridin-2-yl) acrylate acid ester] | > 100 µM | > 100 µM |  | > 100 µM | > 100 µM | > 100 µM |  | 
7 | COc1ccc([C@@H]2CC(=O)c3c(O)cc(OC(=O)/C=C/c4ccc(O)c(OC)n4)cc3O2)cc1OC [Compound M, (S,E) 2-(3,4-dimethoxyphenyl)-5-hydroxy-4-oxochroman-7-yl 3-(5-hydroxy-6-methoxypyridin-2-yl) acrylate acid ester] | 33.3 ± 2.08 µM | > 100 µM | equal or better activities than Ara-C | > 100 µM | 18.6 ± 1.01 µM | 63.87 ± 0.4 µM |  | 
8 | COc1ccc([C@@H]2CC(=O)c3c(O)cc(OC(=O)/C=C/c4ccc(C)cn4)cc3O2)cc1OC [Compound H, (S,E) 2-(3,4-dimethoxyphenyl)-5-hydroxy-4-oxochroman-7-yl 3-(5-methylpyridin-2-yl) acrylate acid ester] | 47.88 ± 0.4 µM | > 100 µM | equal or better activities than Ara-C | > 100 µM | > 100 µM | 63.9 ± 2.28 µM |  | 
9 | COc1ccc([C@@H]2CC(=O)c3c(O)cc(OC(=O)/C=C/c4ccc(Cl)cn4)cc3O2)cc1O [Compound C, (S,E) 5-hydroxy-2-(3-hydroxy-4-methoxyphenyl)-4-oxochroman-7-yl 3-(5-chloropyridin-2-yl) acrylate acid ester] | 86.9 ± 2.28 µM | 5.54 ± 0.39 µM | equal or better activities than Ara-C | 11.7 ± 0.45 µM | 22.7 ± 0.32 µM | 18.4 ± 1.71 µM |  | 
10 | COc1ccc([C@@H]2CC(=O)c3c(O)cc(OC(=O)/C=C/c4ccc(F)cn4)cc3O2)cc1O [Compound D, (S,E) 5-hydroxy-2-(3-hydroxy-4-methoxyphenyl)-4-oxochroman-7-yl 3-(5-fluoropyridin-2-yl) acrylate acid ester] | 12.8 ± 1.37 µM | 7.28 ± 0.13 µM | equal or better activities than Ara-C | 57.13 ± 0.47 µM | 23.7 ± 1.5 µM | 67.13 ± 0.28 µM |  | 
11 | COc1ccc([C@@H]2CC(=O)c3c(O)cc(OC(=O)/C=C/c4ccc(C)cn4)cc3O2)cc1O [Compound B, (S,E) 5-hydroxy-2-(3-hydroxy-4-methoxyphenyl)-4-oxochroman-7-yl 3-(5-methylpyridin-2-yl) acrylate acid ester] | 67.1 ± 1.74 µM | > 100 µM | equal or better activities than Ara-C | 46 ± 0.21 µM | > 100 µM | > 100 µM |  | 
12 | COc1ccc([C@@H]2CC(=O)c3c(O)cc(OC(=O)/C=C/c4ccccn4)cc3O2)cc1OC [Compound G, (S,E) 2-(3,4-dimethoxyphenyl)-5-hydroxy-4-oxochroman-7-yl 3-(pyridin-2-yl) acrylate acid ester] | > 100 µM | 69.13 ± 0.36 µM | equal or better activities than Ara-C | 28.5 ± 0.45 µM | > 100 µM | > 100 µM |  | 
13 | COc1ccc([C@@H]2CC(=O)c3c(O)cc(OC(=O)/C=C/c4ccc(F)cn4)cc3O2)cc1OC [Compound J, (S,E) 2-(3,4-dimethoxyphenyl)-5-hydroxy-4-oxochroman-7-yl 3-(5-fluoropyridin-2-yl) acrylate acid ester] | 84.31 ± 0.47 µM | 46.3 ± 0.47 µM | equal or better activities than Ara-C | 25.1 ± 0.47 µM | 16.1 ± 0.47 µM | > 100 µM |  | 
14 | Nc1ccn([C@@H]2O[C@H](CO)[C@@H](O)[C@@H]2O)c(=O)n1 [Ara-C, cytarabine, reference compound] | 18.3 ± 0.64 µM | > 100 µM |  | 19.2 ± 0.39 µM | 76.9 ± 1.78 µM | 67.6 ± 3.73 µM |  | 
